From PMC6222927, “Aminobenzosuberone Scaffold as a Modular Chemical Tool for the Inhibition of Therapeutically Relevant M1 Aminopeptidases” (Molecules : A Journal of Synthetic Chemistry and Natural …, 2018)
Where two headings read alike, the source gives them in different places. Marks after values point to notes of the source that are not given here. Blank lines part the entries; values can stand above or below the molecule they belong to.

What was measured:
[1] = target: mammalian aminopeptidase N (mAPN); details: cited from earlier work
[2] = system: E. coli (EcPepN) M1 aminopeptidase; details: ref 49; cited from earlier work
[3] = target: P. falciparum (PfAM1) M1 aminopeptidase; details: cited from earlier work
[4] = target: human puromycine sensitive aminopeptidase (HsPSA); details: cited from earlier work
[5] = target: aminopeptidase from A. proteolytica (AAP); parameters: method as in PMID 21843945; details: ref 58; cited from earlier work
[6] = target: pAPN from porcine kidney; details: Dixon plots; cited from earlier work
[7] = target: T1, P. falciparum rPfAM17 (Plasmodium falciparum, UniProt Q8IL11); assay: rPfAM17 inhibition, Leu-pNA substrate, Dixon plots; type: biochemical
T1 construct: made in house; host or cells: Escherichia coli Rosetta 2 (DE3)
T1 sequence (Q8IL11 1-605): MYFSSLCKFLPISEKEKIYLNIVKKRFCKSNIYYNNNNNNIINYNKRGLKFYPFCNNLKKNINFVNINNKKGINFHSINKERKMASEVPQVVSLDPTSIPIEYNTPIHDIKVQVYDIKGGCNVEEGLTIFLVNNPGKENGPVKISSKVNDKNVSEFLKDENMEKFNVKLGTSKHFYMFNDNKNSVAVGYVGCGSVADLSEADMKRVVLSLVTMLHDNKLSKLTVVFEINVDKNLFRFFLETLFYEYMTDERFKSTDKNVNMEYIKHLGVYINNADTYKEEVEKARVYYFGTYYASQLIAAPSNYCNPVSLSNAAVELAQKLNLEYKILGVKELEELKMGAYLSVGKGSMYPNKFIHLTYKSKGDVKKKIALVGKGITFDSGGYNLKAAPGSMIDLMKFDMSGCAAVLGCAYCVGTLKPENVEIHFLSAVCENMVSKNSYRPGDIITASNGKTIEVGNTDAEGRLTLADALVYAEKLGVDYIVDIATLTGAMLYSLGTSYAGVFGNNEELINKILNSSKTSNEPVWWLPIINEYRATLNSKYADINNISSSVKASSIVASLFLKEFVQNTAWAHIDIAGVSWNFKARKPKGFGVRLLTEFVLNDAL
Experimental: Tests were carried out on HP/Agilent UV-Visible diode array spectrophotometer 8453 (HP/Agilent, Santa Clara, CA, USA), at 30 °C in Tris HCl 50 mM pH 7.4 for rPfAM1 and pH 8 for rPfAM17, with a final DMSO concentration of 1%. […]. […] Initial velocities were measured with increasing concentrations of inhibitors and Ki values were determined by Dixon plots in triplicate.

[8] = target: E. coli rEcPepN (Escherichia coli, UniProt P04825); assay: rEcPepN inhibition, Leu-pNA substrate, Dixon method; type: biochemical
Experimental: Enzyme activity assays were carried out in 10 mM Tris-HCl buffer at pH 7.5 with 150 mM NaCl, enzyme, 100 µM substrate (Leu-pNA) in a 100 μL reaction at 37 °C. The absorbance was read at 405 nm. Concentrations ranging from 1 nM to 100 μM of inhibitors (dissolved in DMSO) were incubated with each of the enzymes ([…]) for 30 min at 37 °C in a 96 well plate. After addition of the substrate, immediate increase in absorption was measured. All inhibition assays were performed in triplicates and initial velocities were measured. Percentage inhibition and log values of inhibitor concentrations were plotted using SigmaPlot to determine IC50 values. Ki values were determined by the Dixon method. The assay consists of reaction buffer, enzyme and varied concentrations of Leu-pNA (25, 50, 100, 200 and 400 µM). […] Data were plotted as 1/rate versus inhibitor concentration for each substrate concentration and a linear fit was calculated by non-linear regression using SigmaPlot12.5. All the reactions were performed in triplicates, SD values were reported.

[9] = Octanol/water partition coefficient (logD7.4) by reversed-phase HPLC; details: pH 7.4
Experimental: The flow was 0.9 mL/min. The aminobenzosuberone derivatives were dissolved at 0.4 µM in methanol. The standards were also dissolved in methanol. Column void volume was estimated from the retention time of uracil, which was included as a non-retained internal reference with each injection.

[10] = target: T2, human Leucyl-cystinyl aminopeptidase (rHsIRAP) (Homo sapiens, UniProt Q9UIQ6); assay: rHsIRAP inhibition, L-AMC fluorigenic substrate; type: biochemical
T2 construct: made in house; host or cells: Hi5 insect cells (baculovirus produced in sf9)
Experimental: The enzymatic activity of HsERAP1, HsERAP2 and HsIRAP was determined by following the time-dependent increase in fluorescence at 460 nm (excitation: 380 nm) of the fluorigenic substrates L-Leucine-7-amido-4-methyl coumarin (L-AMC; Sigma, Darmstatd, Germany) for HsERAP1 and HsIRAP and L-arginyl-7-amido-4-methyl coumarin (R-AMC; Sigma) for HsERAP2. […]. The reaction was followed for 10 min at room temperature and the remaining enzymatic activity was calculated by measuring the slope of the time course. […]

[11] = target: human leukotriene A4 hydrolase (rHsLTA4H); parameters: method as in PMID 21843945; details: cited from earlier work; for Ki: ref 58; for % of inhibition of rHsLTA4H: determined at 100 µM
[12] = target: human puromycine sensitive aminopeptidase (rHsPSA) (Homo sapiens, UniProt P55786); assay: rHsPSA inhibition, Leu-pNA substrate, Dixon method; type: biochemical; details: triplicate, SD
Experimental: Enzyme activity assays were carried out in 10 mM Tris-HCl buffer at pH 7.5 with 150 mM NaCl, enzyme, 100 µM substrate (Leu-pNA) in a 100 μL reaction at 37 °C. The absorbance was read at 405 nm. Concentrations ranging from 1 nM to 100 μM of inhibitors (dissolved in DMSO) were incubated with each of the enzymes ([…]) for 30 min at 37 °C in a 96 well plate. After addition of the substrate, immediate increase in absorption was measured. All inhibition assays were performed in triplicates and initial velocities were measured. Percentage inhibition and log values of inhibitor concentrations were plotted using SigmaPlot to determine IC50 values. Ki values were determined by the Dixon method. The assay consists of reaction buffer, enzyme and varied concentrations of Leu-pNA (25, 50, 100, 200 and 400 µM). […]. All the reactions were performed in triplicates, SD values were reported.

[13] = target: T3, human endoplasmic reticulum aminopeptidase 1 (rHsERAP1) (Homo sapiens, UniProt Q9NZ08); assay: rHsERAP1 inhibition, L-AMC fluorigenic substrate; type: biochemical; details: 50 µM L-AMC
T3 construct: made in house; host or cells: Hi5 insect cells (baculovirus produced in sf9)
Experimental: (§1) The enzymatic activity of HsERAP1, HsERAP2 and HsIRAP was determined by following the time-dependent increase in fluorescence at 460 nm (excitation: 380 nm) of the fluorigenic substrates L-Leucine-7-amido-4-methyl coumarin (L-AMC; Sigma, Darmstatd, Germany) for HsERAP1 and HsIRAP and L-arginyl-7-amido-4-methyl coumarin (R-AMC; Sigma) for HsERAP2. […] The reaction was followed for 10 min at room temperature and the remaining enzymatic activity was calculated by measuring the slope of the time course.

[14] = target: T4, human endoplasmic reticulum aminopeptidase 2 (rHsERAP2) (Homo sapiens, UniProt Q6P179); assay: rHsERAP2 inhibition, R-AMC fluorigenic substrate; type: biochemical; details: 50 µM R-AMC
T4 construct: made in house; host or cells: Hi5 insect cells (baculovirus produced in sf9)
Experimental: as §1

[15] = target: T5, P. falciparum rPfAM1 (Plasmodium falciparum, UniProt O96935); assay: biochemical; type: biochemical
T5 construct: made in house; host or cells: Escherichia coli Rosetta 2 (DE3)
T5 sequence (O96935 1-1085): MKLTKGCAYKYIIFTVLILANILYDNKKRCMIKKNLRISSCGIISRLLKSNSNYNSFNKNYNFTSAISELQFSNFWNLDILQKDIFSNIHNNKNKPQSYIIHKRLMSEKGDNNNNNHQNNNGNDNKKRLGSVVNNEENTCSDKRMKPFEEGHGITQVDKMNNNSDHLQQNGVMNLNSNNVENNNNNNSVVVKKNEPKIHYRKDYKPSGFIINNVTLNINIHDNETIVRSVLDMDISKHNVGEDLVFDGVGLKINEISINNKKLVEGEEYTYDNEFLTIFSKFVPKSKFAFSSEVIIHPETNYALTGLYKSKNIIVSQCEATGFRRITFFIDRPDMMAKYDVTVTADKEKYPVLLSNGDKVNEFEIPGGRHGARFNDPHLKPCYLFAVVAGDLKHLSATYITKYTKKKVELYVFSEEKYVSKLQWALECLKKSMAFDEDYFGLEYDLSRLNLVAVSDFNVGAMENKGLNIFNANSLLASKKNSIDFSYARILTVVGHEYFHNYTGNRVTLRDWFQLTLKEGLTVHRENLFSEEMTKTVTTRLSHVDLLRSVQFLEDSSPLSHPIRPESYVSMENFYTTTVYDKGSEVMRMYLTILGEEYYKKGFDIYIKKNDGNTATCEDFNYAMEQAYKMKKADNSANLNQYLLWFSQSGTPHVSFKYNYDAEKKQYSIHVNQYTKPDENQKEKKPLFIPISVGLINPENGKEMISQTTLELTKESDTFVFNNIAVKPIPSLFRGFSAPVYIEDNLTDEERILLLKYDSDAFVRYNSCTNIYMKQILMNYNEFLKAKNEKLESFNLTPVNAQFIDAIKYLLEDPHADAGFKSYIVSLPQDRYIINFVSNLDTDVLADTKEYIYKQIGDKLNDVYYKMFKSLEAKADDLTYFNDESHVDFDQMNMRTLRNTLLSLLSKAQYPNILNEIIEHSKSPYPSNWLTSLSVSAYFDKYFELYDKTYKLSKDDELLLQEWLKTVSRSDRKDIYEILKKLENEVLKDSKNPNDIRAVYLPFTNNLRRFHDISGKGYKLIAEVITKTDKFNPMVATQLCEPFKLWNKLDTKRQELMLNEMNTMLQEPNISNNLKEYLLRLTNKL
Experimental: Initial velocities were measured with increasing concentrations of inhibitors and Ki values were determined by Dixon plots in triplicate.

[16] = target: human aminopeptidase A (HsAPA); details: cited from earlier work
[17] = target: mammalian cytosolic leucine aminopeptidase (mLAPc); details: cited from earlier work
[18] = target: human arginyl aminopeptidase B (HsAPB); details: ref 38; cited from earlier work
[19] = target: P. falciparum M17 aminopeptidase (PfAM17); details: ref 45; cited from earlier work
[20] = target: human leukotriene A4 hydrolase (HsLTA4H); details: ref 37; cited from earlier work
[21] = 50 µM L-AMC, read-out: IC50 rHsIRAP
[22] = Dixon plots, triplicate, read-out: Ki rPfAM1

T2 sequence (Q9UIQ6 155-1025 limits assumed): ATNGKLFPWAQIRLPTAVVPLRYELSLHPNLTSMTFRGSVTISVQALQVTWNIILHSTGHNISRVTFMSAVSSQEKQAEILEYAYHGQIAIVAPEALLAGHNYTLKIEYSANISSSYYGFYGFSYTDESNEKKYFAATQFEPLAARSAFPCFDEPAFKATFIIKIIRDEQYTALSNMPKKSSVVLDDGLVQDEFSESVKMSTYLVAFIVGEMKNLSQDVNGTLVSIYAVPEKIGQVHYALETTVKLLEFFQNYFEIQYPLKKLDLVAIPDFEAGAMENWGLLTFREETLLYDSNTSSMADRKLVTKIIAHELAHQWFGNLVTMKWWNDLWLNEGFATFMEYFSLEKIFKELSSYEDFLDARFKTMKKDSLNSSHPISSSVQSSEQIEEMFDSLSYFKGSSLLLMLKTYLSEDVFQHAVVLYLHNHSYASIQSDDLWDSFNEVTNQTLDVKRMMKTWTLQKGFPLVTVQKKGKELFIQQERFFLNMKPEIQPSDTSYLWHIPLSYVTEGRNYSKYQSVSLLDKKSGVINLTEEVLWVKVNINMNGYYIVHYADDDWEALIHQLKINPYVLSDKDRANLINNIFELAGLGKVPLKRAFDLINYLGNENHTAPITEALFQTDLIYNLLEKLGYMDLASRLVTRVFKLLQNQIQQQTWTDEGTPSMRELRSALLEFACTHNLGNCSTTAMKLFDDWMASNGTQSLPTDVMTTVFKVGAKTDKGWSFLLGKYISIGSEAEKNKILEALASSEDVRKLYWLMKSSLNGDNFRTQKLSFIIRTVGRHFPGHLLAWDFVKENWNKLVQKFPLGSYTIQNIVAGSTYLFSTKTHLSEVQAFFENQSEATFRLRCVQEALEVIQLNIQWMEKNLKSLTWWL
E. coli rEcPepN, sequence (P04825 whole entry): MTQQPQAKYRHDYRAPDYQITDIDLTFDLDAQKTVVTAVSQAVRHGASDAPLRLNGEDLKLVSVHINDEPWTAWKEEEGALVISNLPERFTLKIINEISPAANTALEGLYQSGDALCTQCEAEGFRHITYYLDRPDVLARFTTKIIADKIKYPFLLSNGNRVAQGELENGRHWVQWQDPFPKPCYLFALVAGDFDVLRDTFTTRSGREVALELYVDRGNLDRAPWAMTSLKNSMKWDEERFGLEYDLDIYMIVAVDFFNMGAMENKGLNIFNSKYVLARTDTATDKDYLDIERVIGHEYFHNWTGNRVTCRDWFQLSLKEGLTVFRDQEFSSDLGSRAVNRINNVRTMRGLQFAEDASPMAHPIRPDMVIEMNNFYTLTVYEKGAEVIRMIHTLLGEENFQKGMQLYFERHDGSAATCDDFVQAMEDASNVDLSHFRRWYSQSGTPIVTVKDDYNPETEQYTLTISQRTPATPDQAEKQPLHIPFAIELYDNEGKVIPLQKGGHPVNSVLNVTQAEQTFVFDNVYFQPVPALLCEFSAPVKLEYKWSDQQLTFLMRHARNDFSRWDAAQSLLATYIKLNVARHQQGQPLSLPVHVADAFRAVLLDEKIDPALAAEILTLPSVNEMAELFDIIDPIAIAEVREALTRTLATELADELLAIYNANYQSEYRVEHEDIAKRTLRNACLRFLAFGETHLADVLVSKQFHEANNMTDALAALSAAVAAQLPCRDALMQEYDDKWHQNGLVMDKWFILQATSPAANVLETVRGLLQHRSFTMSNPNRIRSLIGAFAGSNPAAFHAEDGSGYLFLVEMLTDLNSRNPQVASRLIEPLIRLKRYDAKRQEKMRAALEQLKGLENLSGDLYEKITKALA
T4 sequence (Q6P179 whole entry): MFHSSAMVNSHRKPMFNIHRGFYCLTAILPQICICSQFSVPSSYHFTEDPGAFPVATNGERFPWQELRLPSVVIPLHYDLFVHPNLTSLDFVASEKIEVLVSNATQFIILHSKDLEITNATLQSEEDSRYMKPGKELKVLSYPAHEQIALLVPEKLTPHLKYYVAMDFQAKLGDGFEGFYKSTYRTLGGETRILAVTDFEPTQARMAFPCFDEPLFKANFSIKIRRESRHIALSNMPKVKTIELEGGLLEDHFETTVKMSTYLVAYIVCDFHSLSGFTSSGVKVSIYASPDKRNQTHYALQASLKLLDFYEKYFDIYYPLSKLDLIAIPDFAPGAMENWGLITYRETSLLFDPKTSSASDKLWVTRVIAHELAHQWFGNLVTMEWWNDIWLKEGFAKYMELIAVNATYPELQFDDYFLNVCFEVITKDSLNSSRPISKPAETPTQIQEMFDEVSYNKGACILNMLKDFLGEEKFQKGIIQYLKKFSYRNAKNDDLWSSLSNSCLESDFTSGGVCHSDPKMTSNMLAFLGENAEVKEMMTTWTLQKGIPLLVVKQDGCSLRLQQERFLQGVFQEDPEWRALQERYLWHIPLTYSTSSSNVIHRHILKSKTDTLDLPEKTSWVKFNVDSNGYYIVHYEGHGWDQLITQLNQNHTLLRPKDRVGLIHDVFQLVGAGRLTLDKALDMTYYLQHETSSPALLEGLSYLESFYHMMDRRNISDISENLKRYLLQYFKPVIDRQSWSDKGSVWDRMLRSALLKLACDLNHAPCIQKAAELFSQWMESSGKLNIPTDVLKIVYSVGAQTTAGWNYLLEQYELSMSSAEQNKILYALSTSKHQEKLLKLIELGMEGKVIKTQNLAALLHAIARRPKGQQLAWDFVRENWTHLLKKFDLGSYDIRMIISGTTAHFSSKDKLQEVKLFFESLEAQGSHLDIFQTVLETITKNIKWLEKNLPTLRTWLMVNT
T3 sequence (Q9NZ08 whole entry): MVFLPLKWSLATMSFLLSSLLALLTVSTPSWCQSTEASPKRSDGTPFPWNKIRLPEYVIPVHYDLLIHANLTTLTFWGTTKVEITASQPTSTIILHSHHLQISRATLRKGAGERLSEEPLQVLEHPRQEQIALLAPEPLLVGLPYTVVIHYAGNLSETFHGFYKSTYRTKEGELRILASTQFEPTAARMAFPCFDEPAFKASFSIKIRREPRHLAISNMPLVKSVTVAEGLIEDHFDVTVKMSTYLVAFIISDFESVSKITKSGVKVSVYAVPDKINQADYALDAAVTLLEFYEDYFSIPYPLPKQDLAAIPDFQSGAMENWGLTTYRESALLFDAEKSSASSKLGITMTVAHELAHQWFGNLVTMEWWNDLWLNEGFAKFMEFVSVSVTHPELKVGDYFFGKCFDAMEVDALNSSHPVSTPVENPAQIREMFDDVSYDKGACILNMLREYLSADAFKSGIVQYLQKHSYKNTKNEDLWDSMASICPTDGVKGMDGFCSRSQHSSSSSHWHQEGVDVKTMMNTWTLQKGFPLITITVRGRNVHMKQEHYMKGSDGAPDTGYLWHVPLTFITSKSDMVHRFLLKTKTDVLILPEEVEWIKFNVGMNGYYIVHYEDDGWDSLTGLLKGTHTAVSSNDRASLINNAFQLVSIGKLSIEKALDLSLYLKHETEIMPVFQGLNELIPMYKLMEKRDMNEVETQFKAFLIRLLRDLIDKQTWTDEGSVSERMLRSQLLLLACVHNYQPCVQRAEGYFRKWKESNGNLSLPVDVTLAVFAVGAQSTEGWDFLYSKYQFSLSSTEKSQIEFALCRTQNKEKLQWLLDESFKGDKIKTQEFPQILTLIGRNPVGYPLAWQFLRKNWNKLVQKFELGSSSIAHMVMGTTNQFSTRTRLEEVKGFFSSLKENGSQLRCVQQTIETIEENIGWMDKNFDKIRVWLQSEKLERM
human puromycine sensitive aminopeptidase (rHsPSA), sequence (P55786 whole entry): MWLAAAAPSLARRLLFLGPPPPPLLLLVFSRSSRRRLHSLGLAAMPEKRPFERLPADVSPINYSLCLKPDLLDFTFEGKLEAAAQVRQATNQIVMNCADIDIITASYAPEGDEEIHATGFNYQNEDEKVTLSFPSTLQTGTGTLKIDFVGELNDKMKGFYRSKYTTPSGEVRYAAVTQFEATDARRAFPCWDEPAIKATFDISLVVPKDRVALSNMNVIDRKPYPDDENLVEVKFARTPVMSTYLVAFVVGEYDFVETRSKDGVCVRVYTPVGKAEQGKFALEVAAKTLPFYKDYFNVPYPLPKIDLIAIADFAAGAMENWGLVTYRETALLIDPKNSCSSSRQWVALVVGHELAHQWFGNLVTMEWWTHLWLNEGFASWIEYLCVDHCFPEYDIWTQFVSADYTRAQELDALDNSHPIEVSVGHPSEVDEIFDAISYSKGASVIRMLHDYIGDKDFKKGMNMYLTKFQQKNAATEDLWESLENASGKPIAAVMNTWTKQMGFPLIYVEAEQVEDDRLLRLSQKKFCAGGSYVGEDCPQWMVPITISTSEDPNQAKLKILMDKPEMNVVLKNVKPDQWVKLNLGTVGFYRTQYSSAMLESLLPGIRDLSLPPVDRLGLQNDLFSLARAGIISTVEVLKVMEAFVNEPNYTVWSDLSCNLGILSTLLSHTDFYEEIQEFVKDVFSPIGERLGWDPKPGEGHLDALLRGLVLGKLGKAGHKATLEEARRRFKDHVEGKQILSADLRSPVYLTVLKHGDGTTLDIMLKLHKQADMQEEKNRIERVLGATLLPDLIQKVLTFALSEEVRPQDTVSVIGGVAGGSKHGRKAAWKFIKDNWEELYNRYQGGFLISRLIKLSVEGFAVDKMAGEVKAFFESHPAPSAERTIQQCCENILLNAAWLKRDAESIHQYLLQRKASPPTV

SMILES: CCOC(=O)C1=C(Nc2ccccc2)CC(c2ccccn2)N(c2ccccc2)C1c1cccnc1 (centres unmarked) [compound 4]
Ki ([1]; ref 49): > 100 µM | Ki [2]: > 100 µM | Ki ([3]; ref 49): > 100 µM | IC50 ([4]; ref 49): 1.79 µM

SMILES: NC1CCc2cccc(Br)c2CC1=O (centres unmarked) [21b]
Ki [5]: > 100 µM | Ki [6]: 40 nM | Ki [7]: > 100 µM | Ki [8]: 1.07 ± 0.11 µM | chromatographic logD [9]: 1.28 | IC50 [10, 21]: 1 ± 0.08 µM | Ki [11]: > 100 µM | Ki [12]: 1.63 ± 0.08 µM | IC50 [13]: 120 ± 11 µM | IC50 [14]: 49 ± 3.8 µM

SMILES: NC1CCc2c(Br)ccc(Br)c2CC1=O (centres unmarked) [21h]
chromatographic logD [9]: 2.48 | IC50 [10]: 0.034 ± 0.001 µM | Ki ([10]; read-out: Ki HsIRAP): 0.034 µM | Ki [15, 22]: 0.005 ± 0.001 µM

chromatographic logD [9]: 3.06 | Ki [15, 22]: 4 ± 0.7 µM
SMILES: NC1CCc2c(-c3ccccc3)ccc(Br)c2CC1=O (centres unmarked) [21j]
Ki [5]: > 100 µM | Ki [6]: 70 nM | % of inhibition of rHsLTA4H [11]: 54% ^#

SMILES: N[C@H](CS)CCC(=O)O [compound 6]
Ki ([16]; ref 50): 0.14 µM

SMILES: NC1CCc2ccccc2CC1=O (centres unmarked) [21a]
Ki [5]: > 100 µM | Ki [6]: 1000 nM | Ki [8]: 50 ± 3 µM | chromatographic logD [9]: 0.54 | Ki [11]: > 100 µM | Ki [15, 22]: 15 ± 0.07 µM

SMILES: NC1CCc2c(Br)ccc(-c3ccccc3)c2CC1=O (centres unmarked) [21i]
Ki [5]: 39 µM | Ki [6]: 0.06 nM | Ki ([8]; Dixon method, triplicate, SD, read-out: Ki rEcPepN): 0.05 ± 0.003 µM | times more potent than 21c on EcPepN ([8]; ratio of Ki values, 21i versus 21c): 3 | chromatographic logD [9]: 3.12 | IC50 [10]: 0.12 ± 0.015 µM | % of inhibition of rHsLTA4H [11]: 68% ^# | Ki [12]: 0.021 ± 0.003 µM | IC50 [13]: 1.6 ± 0.1 µM | Ki [15]: 0.03 ± 0.005 µM | IC50 [14]: 0.39 ± 0.013 µM

SMILES: O=C(CCc1ccc(F)cc1)/C(=C/c1ccccc1)C(=O)NO [compound 10]
IC50 ([1]; ref 35, 53): 1.37 µM | IC50 ([3]; ref 35, 53): 0.006 µM

SMILES: NC1CCc2c(cccc2-c2ccccc2)CC1=O (centres unmarked) [21f]
Ki [5]: > 100 µM | Ki [6]: 250 nM | Ki [7]: > 100 µM | chromatographic logD [9]: 2.22 | IC50 [10, 21]: 2.2 ± 0.13 µM | Ki [11]: > 100 µM | IC50 [13]: 137 ± 5 µM | Ki [15]: 2 ± 0.07 µM | IC50 [14]: > 200 µM

chromatographic logD [9]: 1.67 | Ki [15, 22]: 15 ± 1 µM
SMILES: NC1CCc2c(ccc3ccccc23)CC1=O (centres unmarked) [21g]
Ki [5]: > 100 µM | Ki [6]: 40 nM | Ki [11]: > 100 µM

SMILES: NC1Cc2ccc3ccccc3c2CC1=O (centres unmarked) [compound 5]
Ki ([17]; ref 38): 3 µM | Ki ([16]; NI = no inhibition): > 1000 µM | Ki [18]: > 1000 µM

SMILES: CCc1cccc(CC)c1N1C(=O)c2cccc3cccc(c23)C1=O [compound 12]
Ki ([1]; ref 55): > 100 µM | IC50 ([4]; ref 55): 0.8 µM

SMILES: NC(CCc1ccccc1)P(=O)(O)CC(Cc1ccccc1)C(=O)O (centres unmarked) [compound 2]
Ki [19]: 0.013 µM | Ki ([1]; ref 46): 0.002 µM | Ki ([3]; ref 47): 0.079 µM

SMILES: CC(C)C[C@@H](C(=O)N[C@H](C(=O)O)c1ccccc1)[C@H](O)C(=O)NO [compound 8]
IC50 ([17]; ref 37): 0.03 µM | IC50 [20]: 0.008 µM | IC50 ([4]; ref 37): 0.85 µM
